Assay results taken from patent US20230126310A1 (priority 2020, published 2023).

Tested on: SARS-CoV-2
Settings: 10 µM

Compound	% Inh. (% Inhibition of SARS-CoV-2) [%]
CC[C@@]1(O)C(=O)OCc2c1cc1n(c2=O)Cc2cc3c(N)cccc3nc2-1 [9-aminocamptothecin]	80.3
FC(F)(F)c1ccc(CNc2ccc(Cc3c[nH]c4ncccc34)cn2)cc1 [PLX-647]	95.7
O=C(NCCCCCCNC(=O)ON=C1CCCCC1)ON=C1CCCCC1 [RHC-80267]	63.9
Cc1ccnc(NC(=O)C(C)c2cccc(C(=O)c3ccccc3)c2)c1 (stereo not drawn) [piketoprofen]	72.4
COC(=O)Nc1ccc(-c2nc(N3CCOCC3)c3cnn(C4CCN(C(=O)OC)CC4)c3n2)cc1 [WYE-354]	89.9
O=C1Nc2ccccc2C2(CCN(CCc3ccc(C(F)(F)F)cc3)CC2)O1 [RS-102895]	82.1
COc1cc2ncnc(Nc3ccc(Cl)cc3F)c2cc1OC [ZM-306416]	77.9
CN(C)C(=O)C(=O)c1cn(C)c2cc(Cl)c(C(=O)N3CCC(Cc4ccc(F)cc4)CC3)cc12 [SX-011]	94.1
Cc1ccc([N+](=O)[O-])cc1S(=O)(=O)N(C)/N=C/c1cnc2ccc(Br)cn12 [PIK-75]	87.6
Cc1ccc(NC(=O)c2cccc(C(C)(C)C#N)c2)cc1Nc1ccc2ncn(C)c(=O)c2c1 [AZ-628]	99.6
COc1ccccc1C1(O)CCN(CCCn2c3ccccc3c3ccccc32)CC1 [NNC-05-2090]	71.8
niguldipine-(S)-(+)	93.0
Nc1cccc(CNC(=O)c2ccc(Oc3ccc(OCc4cccc(F)c4)cc3)nc2)c1 [YM-244769]	60.4
CCCCN1[C@@H]2CC[C@H]1CC(OC(c1ccc(F)cc1)c1ccc(F)cc1)C2 (stereo partly drawn) [JHW-007]	93.1
Cl.c1ccc2c(-c3cnn4cc(-c5ccc(N6CCNCC6)cc5)cnc34)ccnc2c1 [LDN193189 (Hydrochloride)]	74.3
CCn1c(=O)n(C2=C(CO)CN(CC3CCCCCCC3)CC2)c2ccccc21 [trap-101]	77.9
Nc1ccc2ncnc(NCCc3ccc(Oc4ccccc4)cc3)c2c1 [QNZ (EVP4593)]	95.8

Compound	% Inh. (% Inhibition of SARS-CoV-2) [%]
NC(CO)(CO)CO.Nc1nccc(Oc2ccc(NC(=O)c3cn(COP(=O)(O)O)cc(-c4ccc(F)cc4)c3=O)cc2F)c1Cl [SCR-1481B1]	89.3
Cc1c(NC(=O)OC[C@@H]2COCCN2)cn2ncnc(Nc3ccc4c(cnn4Cc4cccc(F)c4)c3)c12 [BMS-599626]	76.4
Nc1[nH]nc2nnc(-c3c(-c4ccccc4)nn4ccccc34)cc12 [FR-180204]	58.8
c1ccc2sc(SN3CCOCC3)nc2c1 [N-oxydiethylenebenzothiazole-2-sulfenamide]	64.6
CC(C)(C)Nc1nc(Nc2ccc(C(N)=O)cc2)cc(N)c1C#N [TC-Mps1-12]	65.3
CC(C)c1c2cc(-c3ccnc(NC4CCC(NC5CCOCC5)CC4)n3)ccc2nn1C (stereo not drawn) [LY2857785]	89.1
CC(C)(C)c1cc(C(=O)/C=C/c2ccc(C(=O)O)cc2)cc(C(C)(C)C)c1 [CH55]	87.5
NC(=O)Nc1sc(-c2ccc(F)cc2)cc1C(N)=O [TPCA-1]	103.5
Cc1cc(-c2ccc(CC(=O)Nc3ccc(-c4cccnc4)cc3)cc2)ccn1 [Wnt-C59 (C59)]	82.3
O=C(Nc1ccccc1)N1CCN(c2nc(-c3ccccc3)ns2)CC1 [JNJ 1661010]	93.8
COc1ccc2[nH]c3c(-c4cccc5ccccc45)nccc3c2c1 [SP-141]	68.6
Cc1cc(=O)oc2c(C=O)c(O)ccc12 [4-mu-8C]	106.2
CC(C)(C)c1ccc(NC(=O)N2CCN(c3ncccc3Cl)CC2)cc1 [BCTC]	86.4
CCOc1cc(C(C)(C)C)ccc1C1=N[C@@](C)(c2ccc(Cl)cc2)[C@@](C)(c2ccc(Cl)cc2)N1C(=O)N1CCN(CCCS(C)(=O)=O)CC1 [RG7112 (RO5045337)]	88.5
CC(C)(C)n1nc(-c2cccc3ccccc23)c2c(N)ncnc21 [1-naphthyl-PP1]	94.1
CC(C)NC(=O)c1ccc(C#Cc2ccncc2)cn1 [LSN-2463359]	74.9
